Results on 2 compounds are retold here after patent US5175168A, “Intermediates for 1,2-dideoxy-2-fluoronojirimycin” (Monsanto Company, priority 1991, dated 1992).

Common to all, as to type: biochemical
One experiment has as its target T1, yeast α-glucosidase (Saccharomyces cerevisiae, UniProt P53341).
T1 construct: purchased Sigma
The experiment is described as follows: α-Glucosidase Inhibition Assay, pH 7.4. The conditions noted are these: read-out: ALPHA GLUCOSIDASE inhibition; for inhibition at 1000 µM: @ 1 mM; for inhibition at 5000 µM: @ 5 mM. As for the experimental part:
(§1) The glycosidase inhibition activity is determined by modifying an assay procedure described in Evans et al, Phytochemistry, 22, pp. 768-770 (1983). More particularly, yeast α-glucosidase and almond β-glucosidase activities were measured by the Evans et al method which was modified by assaying activities at pH 7.4 in N-2-hydroxyethylpiperazine-N-2-ethane sulfonic acid (HEPES) buffer, measuring in 96 well microtiter plates, and including 10% DMSO in control and test samples.
(§2) The release of p-nitrophenol from the substrate p-nitrophenylglycoside was measured spectrophotometrically in the presence and absence of test compound. Each assay included a known inhibitor of the enzyme as a standard. IC50 values were determined for compounds which inhibited the enzymes more than 50& at a 1 millimolar concentration.
To 100 ul 50 mM HEPES buffer, pH 7.4, in a microtiter plate, 20 ul test compound in DMSO (DMSO alone in control)and 40 ul (0.013 units) yeast α-glucosidase (Sigma) in HEPES buffer were added and pre-incubated at room temperature 15 minutes. 40 ul 1.25 mM p-nitro-phenyl-α-D-glucopyranoside (Sigma) in HEPES buffer, as substrate was added and the absorbance change at 405 nm was monitored in a Biotek EIA Autoreader. Absorption change was measured at 15 to 25 minutes (reaction was linear for at least 30 minutes). Each sample was tested in triplicate. IC50 values were determined from the linear portion of the log concentration vs percent inhibition curve obtained from a minimum of 3 points. Deoxynojirimycin was used as standard inhibitor.

In experiment [1] the test system is almond β-glucosidase. The experiment is described as follows: β-Glucosidase Inhibition Assay, pH 4.8. As for the experimental part:
as §1, §2
To 100 ul 50 mM sodium citrate buffer, pH 4.8, in a microtiter plate, 20 ul test compound in DMSO (DMSO alone in control) and 20 ul (0.017 units) β-glucosidase (Sigma) in citrate buffer were added and pre-incubated at room temperature 15 minutes. 20 ul 2.50 mM p-nitrophenyl-β-D-glucopyranside in citrate buffer was added as substrate and incubated at room temperature 20 minutes (reaction is linear for at least 30 minutes). 50 ul 0.4 M NaOH was added and the absorption change at 405 nm was determined utilizing a Biotek EIA Autoreader. Each sample was tested in triplioate. IC50 values were determined from the linear portion of the log concentration vs percent inhibition curve obtained from a minimum of 3 points. Castanospermine was used as standard inhibitor.

Experiment [2] concerns almond β-glucosidase. As to the kind of experiment: β-Glucosidase Inhibition Assay, pH 7.4. As for the experimental part: as §1, §2
To 100 ul 50 mM HEPES buffer, pH 7.4, in a microtiter plate, 20 ul test compound in DMSO (DMSO alone in control) and 40 ul (0.136 units) β-glucosidase (Sigma) in HEPES buffer were added and pre-incubated at room temperature 15 minutes. 40 ul 1.25 mM p-nitrophenylβ-D-glucopyranoside in HEPES buffer was added as substrate and the absorbance change at 405 nm was monitored utilizing a Biotek EIA Autoreader. Absorption change was measured at 15 to 25 minutes (reaction is linear for at least 30 minutes). Each sample was tested in triplicate. IC50 values were determined from the linear portion of the log concentration vs percent inhibition curve obtained from a minimum of 3 points. Castanospermine was used as standard inhibitor.

Experiment [3] deals with T2, ALPHA MANNOSIDASE (Canavalia ensiformis, UniProt C0HJB3).
T2 sequence (C0HJB3 1-562 limits assumed): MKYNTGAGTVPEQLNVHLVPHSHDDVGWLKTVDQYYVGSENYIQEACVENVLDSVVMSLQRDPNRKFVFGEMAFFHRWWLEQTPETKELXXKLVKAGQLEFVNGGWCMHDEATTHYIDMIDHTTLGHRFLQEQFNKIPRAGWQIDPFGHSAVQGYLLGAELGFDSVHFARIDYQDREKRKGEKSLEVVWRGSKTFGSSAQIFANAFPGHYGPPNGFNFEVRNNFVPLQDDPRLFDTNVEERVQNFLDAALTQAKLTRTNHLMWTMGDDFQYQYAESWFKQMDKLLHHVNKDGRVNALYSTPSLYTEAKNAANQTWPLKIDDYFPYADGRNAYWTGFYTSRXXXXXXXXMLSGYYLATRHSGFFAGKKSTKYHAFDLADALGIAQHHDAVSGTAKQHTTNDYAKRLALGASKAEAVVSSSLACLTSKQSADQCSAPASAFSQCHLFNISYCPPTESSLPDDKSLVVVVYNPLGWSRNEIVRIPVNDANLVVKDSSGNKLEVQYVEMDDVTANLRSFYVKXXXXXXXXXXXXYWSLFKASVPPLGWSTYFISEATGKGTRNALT
T2 sequence (C0HJB3 563-981 limits assumed): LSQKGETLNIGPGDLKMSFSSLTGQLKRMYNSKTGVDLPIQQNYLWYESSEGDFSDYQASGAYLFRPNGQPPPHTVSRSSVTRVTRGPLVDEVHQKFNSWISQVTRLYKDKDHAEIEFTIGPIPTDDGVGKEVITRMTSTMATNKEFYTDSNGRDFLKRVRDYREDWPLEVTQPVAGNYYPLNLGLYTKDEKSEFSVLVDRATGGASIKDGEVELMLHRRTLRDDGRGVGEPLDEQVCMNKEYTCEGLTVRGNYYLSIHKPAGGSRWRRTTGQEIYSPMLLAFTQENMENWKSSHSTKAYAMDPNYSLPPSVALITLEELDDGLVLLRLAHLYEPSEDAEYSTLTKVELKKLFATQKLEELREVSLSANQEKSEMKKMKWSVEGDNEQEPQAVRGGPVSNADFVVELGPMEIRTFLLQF
The experiment is described as follows: Alpha mannosidase inhibition, pH 4.5. The note with it: for inhibition at 1000 µM: @ 1 mM; for inhibition at 5000 µM: @ 5 mM.

Experiment [4] deals with T2, ALPHA MANNOSIDASE
As to the kind of experiment: Alpha mannosidase inhibition, pH 7.4. The conditions noted are these: for inhibition at 1000 µM: @ 1 mM; for inhibition at 5000 µM: @ 5 mM.

SMILES strings stand for the structures.

T1 sequence (P53341 whole entry): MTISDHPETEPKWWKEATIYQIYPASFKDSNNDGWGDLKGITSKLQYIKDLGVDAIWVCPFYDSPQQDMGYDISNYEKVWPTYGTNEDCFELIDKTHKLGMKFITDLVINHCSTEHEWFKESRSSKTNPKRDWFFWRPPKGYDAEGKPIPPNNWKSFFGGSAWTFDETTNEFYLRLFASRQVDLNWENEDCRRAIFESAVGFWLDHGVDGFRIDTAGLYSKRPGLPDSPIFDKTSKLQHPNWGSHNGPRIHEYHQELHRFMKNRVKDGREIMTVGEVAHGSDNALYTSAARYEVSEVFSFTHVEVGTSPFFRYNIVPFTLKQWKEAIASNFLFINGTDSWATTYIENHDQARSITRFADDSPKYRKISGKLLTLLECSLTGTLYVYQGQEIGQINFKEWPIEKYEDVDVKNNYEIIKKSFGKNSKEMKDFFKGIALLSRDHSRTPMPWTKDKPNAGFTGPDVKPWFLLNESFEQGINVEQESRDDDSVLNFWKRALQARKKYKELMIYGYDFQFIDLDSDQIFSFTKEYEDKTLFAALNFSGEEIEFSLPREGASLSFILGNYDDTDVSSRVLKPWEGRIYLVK

Broadly, the inhibition is the change of the read-out against control, counted positive when it falls. Take `OC[C@H]1NC[C@H](F)[C@@H](O)[C@@H]1O` [Compound 1, 1,2-dideoxy-2-fluoronojirimycin]: the inhibition at 1000 µM at yeast α-glucosidase worked out at 24%; at ALPHA MANNOSIDASE [3], 4%; on ALPHA MANNOSIDASE [4], 19%. Also, the results for the inhibition at 5000 µM at yeast α-glucosidase, against ALPHA MANNOSIDASE [3] and against ALPHA MANNOSIDASE [4] were 64%, 5% and 11%, respectively. In addition, the figures for the “BETA GLUCOSIDASE-pH 4.8 inhibition” value with almond β-glucosidase [1] (@ 1 mM) and in the experiment on almond β-glucosidase [1] (@ 5 mM) were 6% and 25%, respectively. The “BETA GLUCOSIDASE-pH 7.4 inhibition” value in the experiment with almond β-glucosidase [2] (@ 1 mM) worked out at 11%; in the experiment with almond β-glucosidase [2] (@ 5 mM) it was 25%.
Turning to `CCCCN1C[C@H](F)[C@@H](O)[C@H](O)[C@H]1CO` [Compound 2, N-butyl-1,2-dideoxy-2-fluoronojirimycin], the inhibition at 1000 µM at yeast α-glucosidase worked out at 8%; against ALPHA MANNOSIDASE [3], 3%; against ALPHA MANNOSIDASE [4] it was 4%. For the same compound, the inhibition at 5000 µM was found to be 13% on yeast α-glucosidase, 5% on ALPHA MANNOSIDASE [3] and 12% against ALPHA MANNOSIDASE [4]. Moreover, the “BETA GLUCOSIDASE-pH 4.8 inhibition” value in the experiment on almond β-glucosidase [1] (@ 1 mM) is on record as 2%; in the experiment on almond β-glucosidase [1] (@ 5 mM), -6%. For the same compound, the “BETA GLUCOSIDASE-pH 7.4 inhibition” value in the experiment with almond β-glucosidase [2] (@ 1 mM) is 4%; in the experiment on almond β-glucosidase [2] (@ 5 mM), 11%.
